Experimental data reported in patent publication US20240391931A1 (Bristol-Myers Squibb Company, priority 2021, published 2024).

How the values were obtained:
NCI-H1781 cells = experiment: Cellular proliferation in NCI-H1781 cells (CellTiter Glo); type: cell-based, human; settings: Homo sapiens, 120 h, redosed after 72 h
Experimental: (§1) In addition to the engineered cell lines, the following cell lines were used: BT474 (human breast carcinoma), N87 (human gastric carcinoma), NCI-H1781 (human lung adenocarcinoma), and A431 (human epidermoid carcinoma); all cell lines were obtained from the American Type Culture Collection (ATCC, Manassas, VA). NCI-H1781 were grown in complete RPMI 1640 (Life Technologies, Carlsbad, CA) supplemented with 15% fetal bovine serum (FBS, Life Technologies, Carlsbad, CA) and 1% Penicillin-Streptomycin (P/S, Life Technologies, Carlsbad, CA). N87 cells were grown in complete RPMI 1640 supplemented with 10% FBS and 1% P/S. BT474 and A431 cells were grown in DMEM (Life Technologies, Carlsbad, CA) supplemented with 10% FBS and 1% P/S. All cells were maintained and propagated in a humidified 5% CO2 incubator at 37° C.
(§2) Cell proliferation in adherent cells was investigated in two HER2 amplified cell lines (BT474, N87), and a HER2VC expressing cell line (NCI-H1781). BT474, NCI-H1781, and N87 were plated in their appropriate growth media supplemented with either 10% FBS (BT474, N87) or 15% FBS (NCI-H1781) and 1% P/S in 96-well white clear-bottom tissue culture plates (Costar, Sigma-Aldrich). The starting cell densities were 3500, 5500, and 5000 cells for BT474, NCI-H1781, and N87 cells, respectively. An 8-point standard curve with varying cell densities (starting at 50000 cells and serially diluting down 2-fold) was prepared for each cell line and read 6 h after plating. Cells were allowed to attach overnight prior to compound treatment. Compound solutions were prepared by serially diluting test compounds in DMSO (Sigma-Aldrich), then diluting 500× in their corresponding serum free media. Cells were treated by adding a 1:1 volume of test compound to a final concentration of […], 0.004, 0.0014, or 0.0005 μM, in 0.1% DMSO and 5% FBS (for BT474 and N87) or 7.5% FBS (NCI-H1781). In BT474 and NCI-H1781, cell media was replaced and cells were redosed with fresh test compound solutions after 72 h. Viability was determined by CellTiter Glo (Promega, Madison, WI) after 72 h for N87 cells, and after 120 h for BT474 and […] cells. The results were converted to cell numbers using a standard curve; growth inhibition (GI50 values) were determined by Graph Pad Prism. […] The results are provided in Table 4, under columns titled “BT474-GI50”, “N87-GI50”, and “NCI-H1781-GI50”.

BT474 cells = experiment: Cellular proliferation in BT474 cells (CellTiter Glo); type: cell-based, human; settings: Homo sapiens, BT-474, BT474 cells, 120 h, redosed after 72 h
Experimental: as §1, §2

N87 cells = experiment: Cellular proliferation in N87 cells (CellTiter Glo); type: cell-based, human; settings: Homo sapiens, 72 h
Experimental: as §1, §2

HER2VC (G776delinsVC) = target: T1, HER2VC (G776delinsVC) (Homo sapiens, UniProt P04626, G776C/INS775V); experiment: HER2 signaling (pHER2) in NCI-H1781 cells; type: cell-based; settings: 1.5 hr compound, 1% FBS
T1 construct: NCI-H1781 cells which endogenously expresses a HER2 mutant protein; endogenous in cells; host or cells: NCI-H1781
T1 sequence (P04626 with tags, fused parts or gaps INS775V/G776C): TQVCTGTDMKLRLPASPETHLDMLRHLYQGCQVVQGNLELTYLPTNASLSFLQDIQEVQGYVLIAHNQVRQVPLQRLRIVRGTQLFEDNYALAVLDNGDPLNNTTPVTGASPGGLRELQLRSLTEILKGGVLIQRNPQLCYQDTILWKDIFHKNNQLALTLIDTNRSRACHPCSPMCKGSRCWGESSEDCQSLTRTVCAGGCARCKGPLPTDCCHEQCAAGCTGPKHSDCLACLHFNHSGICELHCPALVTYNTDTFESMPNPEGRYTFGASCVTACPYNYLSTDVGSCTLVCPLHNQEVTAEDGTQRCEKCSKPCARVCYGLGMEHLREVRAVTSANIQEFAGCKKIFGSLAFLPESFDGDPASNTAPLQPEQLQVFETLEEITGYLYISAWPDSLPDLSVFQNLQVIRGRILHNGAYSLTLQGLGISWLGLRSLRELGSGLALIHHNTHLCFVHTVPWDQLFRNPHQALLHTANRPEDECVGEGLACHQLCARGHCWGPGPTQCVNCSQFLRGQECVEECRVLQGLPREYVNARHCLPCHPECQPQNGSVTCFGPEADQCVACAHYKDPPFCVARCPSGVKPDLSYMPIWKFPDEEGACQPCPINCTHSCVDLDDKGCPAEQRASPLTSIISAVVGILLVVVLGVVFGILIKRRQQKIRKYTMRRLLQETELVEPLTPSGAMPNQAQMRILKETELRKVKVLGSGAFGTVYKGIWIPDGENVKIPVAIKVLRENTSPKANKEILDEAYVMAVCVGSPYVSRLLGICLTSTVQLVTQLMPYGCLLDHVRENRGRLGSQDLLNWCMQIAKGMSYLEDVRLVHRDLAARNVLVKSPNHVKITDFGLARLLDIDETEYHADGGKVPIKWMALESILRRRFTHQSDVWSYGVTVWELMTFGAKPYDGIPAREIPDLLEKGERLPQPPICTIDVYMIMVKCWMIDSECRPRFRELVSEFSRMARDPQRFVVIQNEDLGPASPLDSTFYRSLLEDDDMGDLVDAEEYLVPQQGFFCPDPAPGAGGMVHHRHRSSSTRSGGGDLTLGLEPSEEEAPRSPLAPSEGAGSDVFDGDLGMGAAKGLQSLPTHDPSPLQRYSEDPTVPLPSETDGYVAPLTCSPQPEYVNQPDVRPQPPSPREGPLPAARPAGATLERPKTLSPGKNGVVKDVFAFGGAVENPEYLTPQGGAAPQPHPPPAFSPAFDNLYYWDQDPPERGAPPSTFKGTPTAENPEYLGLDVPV
Experimental: as §1
HER2 signaling was assessed in BT474 and N87 cell lines which endogenously overexpress the HER2 wildtype (WT) protein, in NCI-H1781 cells which endogenously expresses a HER2 mutant protein containing a VC insertion in the kinase domain (HER2VC or G776delinsVC), and in engineered cell lines transduced to express the Her2 mutant protein containing the YVMA insertion (Hek293-HER2YVMA and BEAS2B-HER2YVMA).
BT474, N87, and NCI-H1781 were plated in 96-well tissue-culture treated plates (Corning Costar, Sigma-Aldrich) in full media and incubated overnight. Hek293-HER2YVMA and BEAS2B-HER2YVMA cells were plated in 96-well poly-D-lysine treated plates (BD Bioscience, San Jose, CA). For treatment with test compounds, the media was replaced with corresponding low serum media (1% FBS) containing test compound at 1.1, 0.37, 0.12, 0.041, 0.014, 0.005, 0.0014, 0.0005 μM or DMSO control (0.1%). Cells were incubated with compound for 1.5 hr at 37° C. After compound treatment, the media was removed and cells were lysed for 30 min on ice in complete MSD lysis buffer (prepared using MSD base lysis buffer (Meso-Scale Discovery) supplemented with cOmplete, EDTA-free Protease inhibitor cocktail (Roche), Phosphatase Inhibitor Cocktails 2 and 3 (Sigma-Aldrich), and 1 mM PMSF (Sigma-Aldrich)). Lysates were stored at −70° C. until further analysis.
HER2 signaling was evaluated using phospho (Tyr1248)/total ErbB2 whole cell lysate MSD plates (Meso-Scale Discovery, Gaithersburg, MD). The phospho HER2 signal was normalized to total HER2 for each sample; results are reported as % DMSO control. The normalized data was fitted using a sigmoidal curve analysis program (Graph Pad Prism version 6) with variable Hill slope to determine EC50 values.
The HER2 signaling results are provided in Table 4, under columns titled “BT474-pHER2 EC50”, “N87-pHER2 EC50”, and “NCI-H1781-pHER2 EC50”. Hek293-HER2YVMA ins fall under the heading “HEKYVMA-pHER2 EC50”, Ba/F3 HER2YVMA fall under the heading “Ba/F3 YVMA-pHER2 EC50” and BEAS2B-HER2YVMA fall under the heading “BEAS2B YVMA-pHER2 EC50”.

SMILES | GI50 (NCI-H1781 cells; NCI-H1781, NCI-H1781 cells) | GI50 (BT474 cells) | EC50 (HER2VC (G776delinsVC)) | GI50 (N87 cells) | GI50 (NCI-H1781 cells; NCI-H1781 cells)
COc1ccc(Oc2ccc(Nc3ncnc4sc5c(c34)C(C)CN(C(=O)/C=C/CN(C)C)C5)cc2C)cn1 (centres unmarked) [Compound 152, (E)-4-(dimethylamino)-1-(4-((4-((6-methoxypyridin-3-yl)oxy)-3-methylphenyl)amino)-5-methyl-5,8-dihydropyrido[4′,3′:4,5]thieno[2,3-d]pyrimidin-7(6H)-yl)but-2-en-1-one] | < 100 nM | < 100 nM | < 100 nM | < 100 nM | –
Cc1cc(Nc2ncnc3sc4c(c23)CCN(C(=O)/C=C/CN(C)C)C4)ccc1Oc1ccc(N(C)C)nc1 [Compound 158, (E)-4-(dimethylamino)-1-(4-((4-((6-(dimethylamino)pyridin-3-yl)oxy)-3-methylphenyl)amino)-5,8-dihydropyrido[4′,3′:4,5]thieno[2,3-d]pyrimidin-7(6H)-yl)but-2-en-1-one] | – | < 100 nM | < 100 nM | < 100 nM | < 100 nM
COc1ccc(Oc2ccc(Nc3ncnc4sc5c(c34)CCN(C(=O)/C=C/CN3CCOCC3)C5)cc2C)cn1 [Compound 164] | 100 to 350 nM | < 100 nM | < 100 nM | < 100 nM | –

Further lines, with some results ahead:

GI50 (NCI-H1781 cells; NCI-H1781, NCI-H1781 cells) | GI50 (BT474 cells) | EC50 (HER2VC (G776delinsVC)) | SMILES | GI50 (N87 cells) | GI50 (NCI-H1781 cells; NCI-H1781 cells)
< 100 nM | < 100 nM | 100 to 350 nM | COc1ccc(Oc2ccc(Nc3ncnc4sc5c(c34)CN(C(=O)/C=C/CN(C)C)C5)cc2C)cn1 [Compound 128, (E)-4-(dimethylamino)-1-(4-((4-((6-methoxypyridin-3-yl)oxy)-3-methylphenyl)amino)-5,7-dihydro-6H-pyrrolo[3′,4′:4,5]thieno[2,3-d]pyrimidin-6-yl)but-2-en-1-one] | < 100 nM | –
< 100 nM | < 100 nM | < 100 nM | Cc1ccc(Oc2ccc(Nc3ncnc4sc5c(c34)CN(C(=O)/C=C/CN(C)C)C5)cc2Cl)cn1 [Compound 129, (E)-1-(4-((3-Chloro-4-((6-methylpyridin-3-yl)oxy)phenyl)amino)-5H-pyrrolo[3′,4′:4,5]thieno[2,3-d]pyrimidin-6(7H)-yl)-4-(dimethylamino)but-2-en-1-one] | < 100 nM | –
